Reference: patent publication US20100169988A1, “MEANS AND METHODS FOR ISOLATING AND DETERMINING NOVEL TARGETS FOR THE TREATMENT OF NEURODEGENERATIVE, NEUROLOGICAL OR NEUROPSYCHIATRIC DISORDERS AND COMPOSITIONS COMPRISING THE SAME” (priority 2006, published 2010)

Biological target: T1, γ-secretase (Homo sapiens, UniProt P49768)
T1 construct: endogenous in cells; host or cells: cells transfected with α-/β-CTF-Citrine constructs
Experiment: Subcellular localization of Citrine-labeled α-CTF/β-CTF constructs
Format: cell-based
Conditions: Hek 293 cells transfected with α-CTF or β-CTF Citrine constructs
Description: In a first step, the CTF constructs alone were transfected, without any additional influence on subcellular localization and an entirely homogeneous distribution of Citrine fluorescence throughout the cell was observed. Like APP, these constructs first require cleavage of the signal peptide by Signal Peptidase. However, these “precleaved” CTFs never require ectodomain-shedding in the conventional sense of α- or β-secretase cleavage, which is time consuming not only because of the cleavage step alone, but because of the protein trafficking required to make APP accessible to the secretases. PS cleavage was therefore assumed to take place much more rapidly than is the case for wtAPP, whereupon the same experiments were performed with γ-secretase inhibitor L-685,458 aiming at prolonging the half-life of the uncleaved CTFs. […] Apart from this stabilization, however, no obvious difference was discerned between the subcellular localization of the two constructs.
Subcellular protein distribution of fluorescently tagged proteins or proteins stained as described supra was analyzed on a Leica TCS/SP2 confocal microscope. Pictures were acquired at a resolution of 1024×1024 using the 63×H2O immersion objective. Typically, 5-8 z-axis sections were recorded across the entire height of embedded cells so that typical section separations were 0.5 μm. […]

CC(C)C[C@H](NC(=O)[C@H](Cc1ccccc1)C[C@@H](O)[C@H](Cc1ccccc1)NC(=O)OC(C)(C)C)C(=O)N[C@@H](Cc1ccccc1)C(N)=O [L-685,458]
subcellular localization of uncleaved CTF-Citrine: accumulation in ER and Golgi was observed
